Marks after values point to notes of the source that are not given here.
Legend:
ovine COX-1 = target: T1, ovine COX-1 (Ovis aries, UniProt P05979); experiment: In vitro COX inhibitor screening assay (EIA kit, Cayman), COX-1; type: biochemical; settings: mean of two determinations, enzyme kit, read-out: COX1 IC50
T1 construct: purchased Cayman Chemical, Ann Arbor, MI, USA 560131
T1 sequence (P05979 25-600): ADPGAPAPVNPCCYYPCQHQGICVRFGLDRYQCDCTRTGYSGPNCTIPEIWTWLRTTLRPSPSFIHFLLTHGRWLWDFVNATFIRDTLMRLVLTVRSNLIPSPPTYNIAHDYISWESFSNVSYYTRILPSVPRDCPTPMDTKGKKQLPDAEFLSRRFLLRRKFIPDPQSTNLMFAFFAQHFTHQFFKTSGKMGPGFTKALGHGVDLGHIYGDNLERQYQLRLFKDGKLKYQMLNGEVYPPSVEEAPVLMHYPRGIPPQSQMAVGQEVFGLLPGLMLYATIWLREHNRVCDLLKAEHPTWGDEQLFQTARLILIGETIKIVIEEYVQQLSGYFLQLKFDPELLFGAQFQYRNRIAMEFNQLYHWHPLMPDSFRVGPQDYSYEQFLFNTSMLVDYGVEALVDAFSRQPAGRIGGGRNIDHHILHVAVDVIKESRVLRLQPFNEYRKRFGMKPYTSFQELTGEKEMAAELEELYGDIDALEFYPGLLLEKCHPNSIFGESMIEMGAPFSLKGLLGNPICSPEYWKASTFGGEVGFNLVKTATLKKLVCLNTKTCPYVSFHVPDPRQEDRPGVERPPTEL
Description: (§1) Furthermore, the selectivity index for COX-2 (COX-1 IC50 / COX-2 IC50) was calculated for the compounds.

human recombinant COX-2 = target: T2, human recombinant COX-2 (Homo sapiens, UniProt P35354); experiment: In vitro COX inhibitor screening assay (EIA kit, Cayman), COX-2; type: biochemical; settings: for COX2 (SI) selectivity index: COX-1 IC50 / COX-2 IC50; for IC50: COX-2, mean of two determinations, enzyme kit, read-out: COX2 IC50
T2 construct: purchased Cayman Chemical, Ann Arbor, MI, USA 560131
T2 sequence (P35354 18-604): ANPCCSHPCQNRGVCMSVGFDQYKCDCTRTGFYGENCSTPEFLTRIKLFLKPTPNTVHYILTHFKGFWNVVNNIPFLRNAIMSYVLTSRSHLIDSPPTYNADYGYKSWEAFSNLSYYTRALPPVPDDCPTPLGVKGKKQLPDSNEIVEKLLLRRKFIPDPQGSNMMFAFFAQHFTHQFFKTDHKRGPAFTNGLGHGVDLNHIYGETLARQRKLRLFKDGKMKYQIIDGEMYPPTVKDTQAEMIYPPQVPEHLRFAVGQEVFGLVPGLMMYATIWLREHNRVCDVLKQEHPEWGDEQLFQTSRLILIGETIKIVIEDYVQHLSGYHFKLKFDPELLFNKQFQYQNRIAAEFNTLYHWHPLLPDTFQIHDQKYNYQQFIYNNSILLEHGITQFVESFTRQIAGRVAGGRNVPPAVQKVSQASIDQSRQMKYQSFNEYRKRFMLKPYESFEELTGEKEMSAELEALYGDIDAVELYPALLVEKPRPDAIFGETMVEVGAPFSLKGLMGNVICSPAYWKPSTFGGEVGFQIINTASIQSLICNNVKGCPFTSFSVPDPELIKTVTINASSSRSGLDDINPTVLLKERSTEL
Description: as §1

[1] = system: acetic acid-induced writhing in mice; experiment: Acetic acid-induced writhing test (analgesic activity); type: in vivo; settings: 10 mg/kg p.o., n = 5; for Writhing Number in 20 min (Mean ± SEM): acetic acid 1 h after dosing; for Analgesic Activity (% protection): writhing test
Description: The analgesic activity of the compounds was performed using the writhing test as described by Gawade et al.. Mice weight ranged from 25 to 30 g. Then, mice were divided into 18 different groups, each containing five animals. The animals fasted for 8 h before the experiment. Administration of the compounds (10 mg/kg, p.o.) was performed orally. Equal doses of diclofenac as the reference drug and saline as a negative control were also administrated orally. Writhing was induced one hour after compound administration by using 0.1 mL of 1% glacial acetic acid at a volume of 0.1 mL/10 g body weight. The number of writhing responses (stretching of the abdomen, extension of hind limbs, twisting of the trunk, and elongation of the body) observed was counted for 20 min. The protection percentile against acetic acid-induced writhing was calculated according to the following formula: (1) Analgesic activity (%) =n−n′/n×100* where n is the mean number of writhes of the control group, and n’ is the mean number of writhes of the tested compound group.

[2] = system: carrageenan-induced paw edema in rats; experiment: Carrageenan-induced paw edema (anti-inflammatory activity); type: in vivo; settings: 10 mg/kg oral; for % Change in Paw Height (Mean ± SEM): n = 5
Description: Albino rats (150–180 g) were used. The rats were divided into 11 experimental groups of five rats each. One hour after oral administration of the compounds (10 mg/kg), 0.1 mL of 1% carrageenan solution was injected in the left hind paw of each animal. Rat paw volumes were measured with a digital caliber plethysmometer (UGO Basile, Varese, Italy) used to measure inflammation height at 0, 1, 2, and 3 h after carrageenan injection. The percentage increase in inflammation in the left hind paw, in comparison to the uninjected right hind paw, was determined, calculated, and expressed as the amount of inflammation. […] The anti-inflammatory activity of the selected analgesic compounds after 3 h was expressed as percentage inhibition of edema, which was calculated according to the following equation: (2) Inhibition of edema (%) =Vcont−Vtest/Vcont×100* where V cont is the edema volume in the control group, and V test is the edema volume in the group of the screened compound.

[3] = system: interleukin-1 beta (IL-1 β); experiment: ELISA of serum interleukin-1 beta after paw edema test; type: in vivo, rats; settings: rat serum at the end of the paw edema test, mean ± SEM, n = 5
Description: IL1 is one of the important inflammatory mediators and is used to confirm the anti-inflammatory activities of new anti-inflammatory compounds. At the end of the paw edema test, blood samples were collected from the orbital axis of the eye under light ether anesthesia. Sera were separated after centrifugation of blood at 5000 rpm for 15 min; the sera were stored at –80 °C until the ELISA assay was performed according to the manufacturer instructions.

Row | Structure (SMILES) | IC50 (ovine COX-1) [µM] | COX2 (SI) selectivity index (human recombinant COX-2) | IC50 (human recombinant COX-2) [µM] | Writhing Number in 20 min (Mean ± SEM) [1] | Analgesic Activity (% protection) [1] | % Change in Paw Height (Mean ± SEM) ([2]; 1 hr after carrageenan) | % Change in Paw Height (Mean ± SEM) ([2]; 2 hr after carrageenan) | Anti-Inflammatory Activity (% Inhibition of Edema) ([2]; 3 hr after carrageenan) [%] | % Change in Paw Height (Mean ± SEM) ([2]; 3 hr after carrageenan) | IL-1 β Concentration [3] | melting point [°C]
1 | COc1c2occc2c(OC)c2c(C)c(C3=NC4=CC(=O)N5C(=O)CSC5N4C=N3)oc12 (stereo not drawn) [Compound 11b, 8-(4,8-dimethoxy-3-methylbenzo[1,2-b:5,4-b`]difuran-2-yl)-2-hydro-5H,11aH-thiazolo [2’, 3’:2,3]pyrimido[1,6-a][1,3,5]triazine-3,5-dione] | 6.6 | 83 | 0.08 | 37 ± 2.3 ^a | 38 ± 0.80 ^a % | 0.29 ± 0.01 ^a % | 0.23 ± 0.01 ^a % | 56 | 0.27 ± 0.02 ^a % | 42 ± 0.98 ^b Pg /mL | > 350
2 | COc1c2ccoc2cc2oc(C(=Nc3cc(N4CCNCC4)nc(N4CCNCC4)n3)N3CCNCC3)c(C)c12 [Compound 10a, N-(2,6-di (piperazin-1-yl)pyrimidin-4-yl)-1-(4-methoxy-3-methylbenzo [1,2-b: 5,4-b`]difuran-2-yl)-1-(piperazin-1-yl) methanimine] | 4.23 | 98 | 0.043 | 25 ± 1.3 ^a | 50 ± 1.6 ^a % | 0.19 ± 0.01 ^a % | 0.14 ± 0.02 ^a % | 67 | 0.16 ± 0.02 ^a % | 31 ± 0.55 ^b Pg /mL | > 350
3 | COc1c2ccoc2cc2oc(C3=NC4=CC(=O)N5C(=O)CSC5N4C(=O)CO3)c(C)c12 (stereo not drawn) [Compound 12a, 8-(4-methoxy-3-methylbenzo[1,2-b:5,4-b`]difuran-2-yl)-5H,12aH-thiazolo[2’,3’:2,3] pyrimido[6,1-d][1,3,5]oxadiazepine-3,5,11(2H,10H)-trione] | 6.4 | 85 | 0.075 | 35 ± 1.2 ^a | 40 ± 1.50 ^a % | 0.28 ± 0.02 ^a % | 0.23 ± 0.01 ^a % | 57 | 0.26 ± 0.01 ^a % | 41 ± 0.85 ^b Pg /mL | > 350
4 | COc1c2ccoc2cc2oc(C(Cl)=Nc3cc(Cl)nc(=S)[nH]3)c(C)c12 [Compound 8a, N-(6-chloro-2-thioxo-2,3-dihydropyrimidin-4-yl)-4-methoxy-3-methylbenzo [1,2-b: 5,4-b`] difuran-2-carbimidoyl chloride] | 17 | 61 | 0.28 | 48 ± 1.9 ^a,b | 27 ± 0.60% | 0.37 ± 0.02 ^a % | 0.30 ± 0.03 ^a % | 40 | 0.37 ± 0.02 ^a % | – | 337 to 339
5 | COc1c2ccoc2cc2oc(C(Cl)=Nc3cc(Cl)nc(SC)n3)c(C)c12 [Compound 9a, N-(6-chloro-2-(methylthio)pyrimidin-4-yl)-4-methoxy-3-methylbenzo [1,2-b: 5,4-b`] difuran-2-carbimidoyl chloride] | 12 | 70 | 0.17 | 45 ± 2.4 ^a,b | 30 ± 1.05% | 0.35 ± 0.01 ^a % | 0.28 ± 0.02 ^a % | 45 | 0.33 ± 0.02 ^a % | – | > 350
6 | COc1c2occc2c(OC)c2c(C)c(C(=Nc3cc(N4CCNCC4)nc(N4CCNCC4)n3)N3CCNCC3)oc12 [Compound 10c, N-(2,6-di (piperazin-1-yl)pyrimidin-4-yl)-1-(4,8-dimethoxy-3-methylbenzo [1,2-b: 5,4-b`]difuran-2-yl)-1-(piperazin-1-yl) methanimine] | 4.15 | – | – | 24 ± 1.5 ^a | 51 ± 1.4 ^a % | 0.18 ± 0.01 ^a % | 0.13 ± 0.02 ^a % | 68 | 0.15 ± 0.02 ^a % | 30 ± 0.70 ^b Pg /mL | –
7 | COc1c2occc2c(OC)c2c(C)c(C(Cl)=Nc3cc(Cl)nc(SC)n3)oc12 [Compound 9b, N-(6-chloro-2-(methylthio)pyrimidin-4-yl)-4,8-dimethoxy-3-methylbenzo [1,2-b: 5,4-b`] difuran-2-carbimidoyl chloride] | 11.1 | 72 | 0.155 | 44 ± 2.5 ^a,b | 32 ± 1.2% | 0.33 ± 0.02 ^a % | 0.27 ± 0.01 ^a % | 48 | 0.31 ± 0.01 ^a % | – | > 350
8 | COc1c2occc2c(OC)c2c(C)c(C(=O)Nc3cc(=O)[nH]c(=S)[nH]3)oc12 [Compound 5b, 4,8-dimethoxy-3-methyl-N-(6-oxo-2-thioxo-1,2,3,6-tetrahydropyrimidin-4-yl) benzo [1,2-b: 5,4-b`] difuran-2-carboxamide] | 17.9 | 50 | 0.36 | 52 ± 1.4 ^a,b | 23 ± 0.70% | 0.42 ± 0.04 ^a % | 0.34 ± 0.01 ^a % | 30 | 0.44 ± 0.03 ^a % | – | 266 to 268
